Assay results reported in patent US12446574B2, “Adjuvants for agrochemical formulations” (SYNGENTA CROP PROTECTION AG, priority 2016, dated 2025).

Test: Storage stability of aqueous adjuvant formulations: clear isotropic single-phase solution after 24 hours at the temperature of interest
Assay type: physicochemical
Design: key: Pass: Samples which were found to be clear isotropic solutions after 24 hours were classified as a pass; Fail: all other results were classed as a fail
Text: For the purposes of the present invention we define a stable formulation of adjuvant in water as one where the mixture forms a homogeneous or single phase liquid. The liquid may be a micellar solution however it will appear isotropic to the naked eye. […] This stability allows the design of products with shelf lives potentially running to several years. […]

## COCc1cnc(C2=NC(C)(C(C)C)C(=O)N2)c(C(=O)O)c1 (stereo not drawn) [Imazamox, imazamox]
20 °C, Plurafac=0, water=40.5, imazamox=4.5, Tween 20=50, PG=5 % w/w
  Result: Pass
20 °C, Plurafac=0, water=45, imazamox=5, Tween 20=50 % w/w
  Result: Pass
20 °C, Plurafac=0, water=64.8, imazamox=7.2, Tween 20=20, PG=8 % w/w
  Result: Pass
20 °C, Plurafac=0, water=72, imazamox=8, Tween 20=20 % w/w
  Result: Pass
20 °C, Plurafac=0, water=72.9, imazamox=8.1, Tween 20=10, PG=9 % w/w
  Result: Pass
20 °C, Plurafac=0, water=81, imazamox=9, Tween 20=10 % w/w
  Result: Pass
50 °C, Plurafac=0, water=40.5, imazamox=4.5, Tween 20=50, PG=5 % w/w
  Result: Pass
50 °C, Plurafac=0, water=45, imazamox=5, Tween 20=50 % w/w
  Result: Pass
50 °C, Plurafac=0, water=64.8, imazamox=7.2, Tween 20=20, PG=8 % w/w
  Result: Pass
50 °C, Plurafac=0, water=72, imazamox=8, Tween 20=20 % w/w
  Result: Pass
50 °C, Plurafac=0, water=72.9, imazamox=8.1, Tween 20=10, PG=9 % w/w
  Result: Pass
50 °C, Plurafac=0, water=81, imazamox=9, Tween 20=10 % w/w
  Result: Pass
-5 °C, Plurafac=0, water=40.5, imazamox=4.5, Tween 20=50, PG=5 % w/w
  Result: Fail
-5 °C, Plurafac=0, water=45, imazamox=5, Tween 20=50 % w/w
  Result: Fail
-5 °C, Plurafac=0, water=64.8, imazamox=7.2, Tween 20=20, PG=8 % w/w
  Result: Pass
-5 °C, Plurafac=0, water=72, imazamox=8, Tween 20=20 % w/w
  Result: Pass
-5 °C, Plurafac=0, water=72.9, imazamox=8.1, Tween 20=10, PG=9 % w/w
  Result: Pass
-5 °C, Plurafac=0, water=81, imazamox=9, Tween 20=10 % w/w
  Result: Pass
-10 °C, Plurafac=0, water=40.5, imazamox=4.5, Tween 20=50, PG=5 % w/w
  Result: Fail
-10 °C, Plurafac=0, water=45, imazamox=5, Tween 20=50 % w/w
  Result: Fail
-10 °C, Plurafac=0, water=64.8, imazamox=7.2, Tween 20=20, PG=8 % w/w
  Result: Pass
-10 °C, Plurafac=0, water=72, imazamox=8, Tween 20=20 % w/w
  Result: Pass
-10 °C, Plurafac=0, water=72.9, imazamox=8.1, Tween 20=10, PG=9 % w/w
  Result: Pass
-10 °C, Plurafac=0, water=81, imazamox=9, Tween 20=10 % w/w
  Result: Pass
